Question: With `O=c1nc(-c2ccccc2F)c2cc(Cl)ccc2[nH]1` as the compound, how does the melting point read?
Answer: > 300 °C

Question: For `NCCCOc1cccc2[nH]c3ccccc3c12`, which melting point is on record?
Answer: 146 to 147 °C

Question: Which melting point does the source give for `CCOC(=O)c1[nH]c(C)c2c1CCC2` here?
Answer: 166 to 167 °C

Question: Which melting point does the source give for `O=C1c2ccccc2C(=O)N1CCCCOc1ccc([N+](=O)[O-])cc1` here?
Answer: 112 to 114 °C

Question: Which melting point does the source give for `C(=Cc1ccccc1)COc1ccc(C2OCCO2)cc1` here?
Answer: 102 °C

Question: For `COc1cc([N+](=O)[O-])c2nccc(C)c2c1Oc1ccc(F)cc1`, which melting point is on record?
Answer: 184 to 186 °C

Question: For `CCOC(=O)Cc1ccc2c(c1)sc1cc(Cl)ccc12`, which melting point is on record?
Answer: 68 to 70 °C

Question: With `O=C1Cc2cc3c(cc2C(c2ccc([N+](=O)[O-])cc2)=NN1)OCO3` as the compound, how does the melting point read?
Answer: 293 to 295 °C

Question: For `O=C(Nc1cccc2c(-n3ccnc3)c(CO)cnc12)c1c(Cl)cccc1Cl`, which melting point is on record?
Answer: 205 to 207 °C

Question: Which melting point does the source give for `COc1ccc(CC(O)c2ccccn2)cc1OC` (stereo unspecified) here?
Answer: 93 to 94 °C

Question: With `CCCCc1[nH]c2ccc([N+](=O)[O-])cc2c1C(=O)c1ccc(OCCCCl)cc1` as the compound, how does the melting point read?
Answer: 125 °C

Question: For `O=c1[nH]c(-c2ccc(Cl)cc2)c(CN2CCOCC2)s1`, which melting point is on record?
Answer: 206 °C

Question: For `O=c1cc(Cl)cnn1CC1CCCCC1`, which melting point is on record?
Answer: 81.6 to 81.8 °C

Question: With `CCOc1cc2ncc(C#N)c(Nc3ccc(F)c(Cl)c3)c2cc1OCC` as the compound, how does the melting point read?
Answer: 194 to 198 °C

Question: With `CCCCCCCCCCCC(=O)c1ccc2c(Cl)cccc2c1O` as the compound, how does the melting point read?
Answer: 86 to 87 °C

Question: With `NCCSc1ncccc1C(N)=O` as the compound, how does the melting point read?
Answer: 131 to 133 °C

Question: With `COc1ccc2ccccc2c1-c1c(C)c2c(c(C)c1P(c1ccccc1)c1ccccc1)CCC2` as the compound, how does the melting point read?
Answer: 166 °C

Question: With `COc1ccc(O)c(C=O)c1OC` as the compound, how does the melting point read?
Answer: 53 to 54 °C

Question: For `Nc1ncnc2c1ncn2Cc1nc2ccc(Br)cc2c(=O)n1-c1ccccc1Cl`, which melting point is on record?
Answer: 284 to 285 °C

Question: Which melting point does the source give for `CCCCCCCCCCCCCCCCCC(=O)Nc1cccc([N+](=O)[O-])c1` here?
Answer: 75 to 76 °C

Question: Which melting point does the source give for `O=C(NC1(C(=O)O)CCCC1)OCc1ccccc1` here?
Answer: 70 to 80 °C

Question: For `CON1CCC2(CC1)NC(=O)C(c1cc(-c3ccc(Cl)cc3)c(F)cc1C)=C2OC(=O)C(C)(C)C`, which melting point is on record?
Answer: 150 to 151 °C

Question: Which melting point does the source give for `CN(Cc1cc2c3c(c1)c(=O)c(C(=O)NCc1ccc(Cl)cc1)cn3CC(=O)N2C)C[C@@H](O)c1ccco1` here?
Answer: 119 to 120 °C

Question: With `Nc1cc(Cl)nc(C(=O)O)c1C=O` as the compound, how does the melting point read?
Answer: 146 to 148 °C

Question: With `CCOC(=O)C1=C(C)NC2=C(C(=O)OC2)C1c1cccs1` (stereo unspecified) as the compound, how does the melting point read?
Answer: 232 °C

Question: With `O=C(c1ccccc1)c1cc([N+](=O)[O-])ccc1-n1nc(CN2C(=O)c3ccccc3C2=O)cc1CN1C(=O)c2ccccc2C1=O` as the compound, how does the melting point read?
Answer: 220 to 224 °C

Question: For `O=C(NCc1cccnc1)OCc1ccccc1`, which melting point is on record?
Answer: 73.6 to 77.1 °C

Question: For `N#Cc1c(N)nc2ccc(N3CCOCC3)cc2c1Cl`, which melting point is on record?
Answer: 206 °C

Question: For `CC(C)c1[nH]nc(C(N)=O)c1N`, which melting point is on record?
Answer: 178 to 179 °C

Question: With `Cc1cccc(Nc2nc(-n3nc(C)cc3C)nc3ccccc23)c1` as the compound, how does the melting point read?
Answer: 249 to 250 °C

Question: With `CCCCCCCCCCCCCCCCOC(=O)c1ccc(-c2ncc[nH]2)nc1` as the compound, how does the melting point read?
Answer: 97 to 98 °C

Question: For `COC(=O)C(c1ccc(OCCNC(=O)C2Cc3ccccc3N2S(=O)(=O)c2ccc(-c3cc(C(F)(F)F)ccc3Cl)cc2)cc1)C(C)C` (stereo unspecified), which melting point is on record?
Answer: 68 to 75 °C

Question: With `CCOC(=O)C1CCc2cc(Cc3cnc(N)s3)ccc2C1` (stereo unspecified) as the compound, how does the melting point read?
Answer: 147 to 149 °C

Question: With `Cn1cncc1C(c1ccc(Cl)cc1)c1ccc(N)c(C(=O)c2cccc(Cl)c2)c1` (stereo unspecified) as the compound, how does the melting point read?
Answer: 179 °C

Question: For `Nc1ncnn1C(=S)NC1CCCCC1`, which melting point is on record?
Answer: 168 to 170 °C

Question: For `O=[N+]([O-])c1ccc(C=Cc2ccc(N(CCCCCCO)CCCCCCO)cc2)cc1`, which melting point is on record?
Answer: 126 to 128 °C

Question: For `CC(CN1CC(=O)N(CN2CCN(C)CC2)C(=O)C1)N1CC(=O)N(CN2CCN(C)CC2)C(=O)C1` (stereo unspecified), which melting point is on record?
Answer: 93 to 96 °C

Question: With `C=CCOc1ccccc1OCC(O)CNC1CCC(NC(=O)NCC)CC1` (stereo unspecified) as the compound, how does the melting point read?
Answer: 159 to 160 °C

Question: Which melting point does the source give for `Clc1cnc2ccc(Br)cc2n1` here?
Answer: 145 °C

Question: For `O=C(O)CCCc1cc2cc(Cl)ccc2n1S(=O)(=O)c1ccc2nsnc2c1`, which melting point is on record?
Answer: 172 to 175 °C

Question: With `O=C(NC1CC1)c1ccccc1C(c1ccc(O)cc1)c1ccc(O)cc1` as the compound, how does the melting point read?
Answer: 221 to 226 °C

Question: With `Cc1cc(C)cc(-c2cnn3c(-c4cccc(-c5nnn(CC6CCC6)n5)c4)ccnc23)c1` as the compound, how does the melting point read?
Answer: 64 °C

Question: With `CC(=O)C(=O)Nc1ccc(-c2ccc(C(=O)O)c(=O)[nH]2)cc1` as the compound, how does the melting point read?
Answer: > 280 °C

Question: Which melting point does the source give for `COC(=O)C(F)[C@@H]1[C@H]2O[C@H]2C[C@H]1O` (stereo partly specified) here?
Answer: 31 to 33 °C

Question: With `CC1=Nc2ccc(CO)cc2C(=O)C1` as the compound, how does the melting point read?
Answer: 249 to 252 °C

Question: For `CCOC(=O)C1=C(C)NC(C)=C(C(=O)OCC)C1c1ccccc1F`, which melting point is on record?
Answer: 151 to 152 °C

Question: Which melting point does the source give for `CC(C)n1nc(-c2sc(NC(=O)c3ccccc3)nc2-c2ccc(F)cc2)ccc1=O` here?
Answer: 228 to 230 °C

Question: With `CN(C)CCNC(=O)c1c[nH]c(=S)n1C1CCc2c(F)cc(F)cc2C1` (stereo unspecified) as the compound, how does the melting point read?
Answer: 125 °C

Question: With `O=C(Nc1ccc(C(F)(F)F)cc1)N1CC2CCc3ccccc3C2=N1` (stereo unspecified) as the compound, how does the melting point read?
Answer: 149 to 151 °C

Question: With `CNS(=O)(=O)Nc1cc(-c2nn(C)c(OC(F)F)c2Cl)c(Cl)cc1Cl` as the compound, how does the melting point read?
Answer: 133 °C

Question: Which melting point does the source give for `CC(=O)Nc1cc(C(=O)OCCN2CCCCC2)c2oc(-c3ccccc3)cc2c1` here?
Answer: 172 to 174 °C

Question: Which melting point does the source give for `COc1cccc(/C=C/C2=CCN(Cc3c[nH]c4ncccc34)CC2)c1` here?
Answer: 186 to 188 °C

Question: For `CCOC(=O)c1cc2c(C)cccc2n1CCNC(=O)OC(C)(C)C`, which melting point is on record?
Answer: 93 to 94 °C

Question: For `N[C@@H](Cc1ccc(O)cc1)[C@H](O)C(F)(F)F`, which melting point is on record?
Answer: 172 to 174 °C

Question: Which melting point does the source give for `CCCCCCc1cc2c(cc1S)C(=O)CC2` here?
Answer: 100 °C

Question: For `Cc1c(NC(=O)CC(C)(C)C)c2c(c3c1C(c1ccc(C(C)C)cc1)CO3)CCC2` (stereo unspecified), which melting point is on record?
Answer: 201 to 202 °C

Question: For `C[C@@H]1NC(=O)c2cccc([N+](=O)[O-])c2N[C@H]1C` (relative stereo), which melting point is on record?
Answer: 170 °C

Question: Which melting point does the source give for `CNC(=O)Oc1ccc2c(c1)CCN2` here?
Answer: 109 to 112 °C

Question: With `CCN1C(=O)CCCc2cc(Nc3ncc(Cl)c(Nc4ccccc4S(=O)(=O)C(C)C)n3)c(OC)cc21` as the compound, how does the melting point read?
Answer: 195 to 197 °C

Question: For `CCOC(=O)NCSSc1ccc([N+](=O)[O-])cc1C(Cl)(Cl)Cl`, which melting point is on record?
Answer: 90 to 91 °C

Question: Which melting point does the source give for `COc1ccc(CNc2ccncc2)c2c1OCC2C` (stereo unspecified) here?
Answer: 138 to 145 °C

Question: For `Cc1cc(Cc2ccc(NS(C)(=O)=O)cc2F)n(C)c1C(=O)c1ccccc1`, which melting point is on record?
Answer: 165 to 167 °C

Question: For `Cc1ccc(C=C(F)C(=O)NC(Cc2ccccc2)C(=O)O)cc1` (stereo unspecified), which melting point is on record?
Answer: 163 to 164 °C

Question: With `COC(=O)N(C)C1CN(C(=O)Nc2ccc(OC(F)(F)F)cc2)N=C1c1ccc(O)cc1` (stereo unspecified) as the compound, how does the melting point read?
Answer: 228 to 233 °C

Question: For `OCC1Cc2c(c(Br)cc3c(-c4ccccc4)noc23)O1` (stereo unspecified), which melting point is on record?
Answer: 164 to 166 °C

Question: With `Cc1nnc(-c2ccc3occ(-c4ccc(S(=O)(=O)Cc5ccccc5)cc4)c3c2)o1` as the compound, how does the melting point read?
Answer: 229 to 230 °C

Question: Which melting point does the source give for `CC(C)C(OC(=O)C(C)(C)C)n1nnc(-c2ccccc2-c2ccc(Oc3c(C4CC4)nc4ccccc4c3C(=O)O)cc2)n1` (stereo unspecified) here?
Answer: 165 to 168 °C

Question: For `CCOC(=O)N1CCN(CCNc2ncnc3c2sc2nc(N4CCCC4)c4c(c23)CC(C)(C)OC4)CC1`, which melting point is on record?
Answer: 97.8 to 99.1 °C

Question: Which melting point does the source give for `Cc1oc(-c2ccccc2)nc1COc1cccc([N+](=O)[O-])c1` here?
Answer: 106 to 107 °C

Question: With `CC(O)c1cccc2cccc(O)c12` (stereo unspecified) as the compound, how does the melting point read?
Answer: 89 to 90 °C

Question: For `O=C(Nc1ccccc1)NC1C(=O)N(CCO)c2ccccc2N(CC23CC4CC(CC(C4)C2)C3)C1=O` (single isomer, unassigned; (-)), which melting point is on record?
Answer: 165 to 170 °C

— a melting point compilation (Tetko et al.; mined from patent text by program, amines drawn as free bases though some values may be those of a salt)
